{
  "source": "patent US20240172744A1",
  "about": "“H[…] SOLUTION FOR REPAIRING KIDNEY INJURY AND USE THEREOF” (WUHAN UNIVERSITY, priority 2022, published 2024)",
  "key": {"[1]": {"tested_on": "kidney from a donation after circulatory death donor of a rat", "experiment": "H&E pathological examination of renal tissues after 2 h of kidney perfusion", "settings": "Examples 1-4: 200, 400, 600, 800 μM in KPS-1 solution; warm ischemia 30, 45, 60, 90 min; after 2 h perfusion; FIGS. 3A-3D", "method": "After 2 h of kidney perfusion according to the methods of Examples 1-4, 1 cm^3 of renal tissues were taken out and fixed in neutral formaldehyde for storage, and then dehydrated, embedded in paraffin, sectioned and then stained by H&E, and finally photographed under a microscope to observe morphological changes and pathological analysis of tissues."}, "[2]": {"tested_on": "kidney from a donation after circulatory death donor of a rat", "experiment": "hypothermic oxygenated perfusion of rat donation-after-circulatory-death kidney ex-vivo, perfusion parameters (intrarenal resistance)", "settings": "Examples 1-4: 200, 400, 600, 800 μM in KPS-1 solution, warm ischemia 30, 45, 60, 90 min, 0-4 °C, 30 mmHg, 2 h perfusion, FIGS. 2A-2D", "method": "The method for performing hypothermic oxygenated perfusion on a kidney from a donation after circulatory death donor of a rat by using the perfusion fluid according to the examples of the present invention specifically includes the following steps: for a donor organ donated after a cardiac death, in the kidney acquisition process, performing in-situ organ lavage by using heparin sodium saline with a temperature of 4° C. to effectively remove thrombus in large blood vessels and to relieve the obstacle of the thrombus to the delivery of carbon monoxide released by carbon monoxide-releasing molecules to the kidney, combining ex-vivo hypothermic oxygenated perfusion with the carbon monoxide released by the carbon monoxide-releasing molecules to specifically achieve the vasodilation, the removal of microthrombus and the recovery of the patency of the microcirculation, and evaluating the function and quality of the kidney through perfusion parameters (perfusion flow and intrarenal resistance) and a macroscopic kidney state, wherein the perfusion parameters can reflect the kidney function to a certain degree; a kidney with a good function can be subjected to allogeneic kidney transplantation and a kidney with a poor function will be discarded. […]"}},
  "data": [
    {"substance": "carbon monoxide-releasing molecules-401", "values": [
      {"measurement": "pathological examination of renal tissues (glomeruli, renal tubules, renal interstitium; H&E)", "setting": "[1]", "value": "no obvious abnormality found"},
      {"measurement": "intrarenal resistance during hypothermic oxygenated perfusion", "setting": "[2]; listed as carbon monoxide-releasing molecule", "value": "continuously decrease"},
      {"measurement": "intrarenal resistance during hypothermic oxygenated perfusion", "setting": "[2]; listed as carbon monoxide-releasing molecules", "value": "significantly reduced and maintained to be stable"}
    ]}
  ]
}
